We go through 14 compounds from ChEMBL document CHEMBL3085736, “Identification of sulfonic acids as efficient ecto-5'-nucleotidase inhibitors” (Eur J Med Chem, 2013).

What is called inhibition is the share of the control response that was lost under treatment. As usually defined, the IC50 is the concentration that gives 50% inhibition.

In data set [1] the test system is NCI-H157. Briefly: Cytotoxicity against human NCI-H157 cells at 100 uM after 24 hrs by sulforhodamine B assay. The format is functional. (In general: The SRB assay estimates cell density from bound dye.)
The next data set relates to HCEC. Kind of data set: Cytotoxicity against HCEC after 24 hrs by sulforhodamine B assay. Format: cell-based. To be noted: human.
Data set [2] has as its target T1, 5'-nucleotidase (Rattus norvegicus) (UniProt P21588).
T1 sequence (whole entry): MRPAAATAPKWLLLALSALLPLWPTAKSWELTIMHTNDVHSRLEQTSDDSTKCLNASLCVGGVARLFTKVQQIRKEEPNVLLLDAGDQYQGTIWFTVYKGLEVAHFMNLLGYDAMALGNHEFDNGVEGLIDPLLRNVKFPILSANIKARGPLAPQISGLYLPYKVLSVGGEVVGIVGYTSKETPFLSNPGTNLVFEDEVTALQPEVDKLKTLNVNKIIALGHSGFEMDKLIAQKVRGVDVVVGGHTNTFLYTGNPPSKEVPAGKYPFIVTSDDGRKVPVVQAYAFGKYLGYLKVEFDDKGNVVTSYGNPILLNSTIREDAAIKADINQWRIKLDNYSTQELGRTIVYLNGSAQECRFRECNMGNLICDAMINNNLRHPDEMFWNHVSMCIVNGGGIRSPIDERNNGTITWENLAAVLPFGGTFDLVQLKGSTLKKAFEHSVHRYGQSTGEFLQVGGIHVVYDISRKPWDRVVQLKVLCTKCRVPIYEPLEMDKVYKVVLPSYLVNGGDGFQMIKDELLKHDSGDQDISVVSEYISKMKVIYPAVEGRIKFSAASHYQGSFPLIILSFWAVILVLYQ
Kind of data set: Inhibition of rat recombinant ecto-5'-nucleotidase expressed in african green monkey COS7 cells using adenosine monophosphate as substrate at 1 mM preincubated for 10 mins before substrate addition measured after 10 mins by capillary electrophoresis. Format: cell-based. To be noted: COS-7.

Data set [3] addresses T2, 5'-nucleotidase (Homo sapiens, UniProt P21589). Briefly: Inhibition of human recombinant ecto-5'-nucleotidase expressed in african green monkey COS7 cells using adenosine monophosphate as substrate at 1 mM preincubated for 10 mins before substrate addition measured after 10 mins by capillary electrophoresis. Format: cell-based. As to conditions: COS-7.
Data set [4] has as its target T2, 5'-nucleotidase. Briefly: Inhibition of human recombinant ecto-5'-nucleotidase expressed in african green monkey COS7 cells using adenosine monophosphate as substrate preincubated for 10 mins before substrate addition measured after 10 mins by capillary electrophoresis. The format is cell-based, COS-7.
Data set [5] concerns the target T3, 5'-nucleotidase (Rattus norvegicus, UniProt P21588).
T3 sequence (P21588 whole entry): T1 sequence (whole entry)
Kind of data set: Inhibition of rat recombinant ecto-5'-nucleotidase expressed in african green monkey COS7 cells using adenosine monophosphate as substrate preincubated for 10 mins before substrate addition measured after 10 mins by capillary electrophoresis. Format: cell-based, COS-7.

The test system of data set [6] is NCI-H157. Kind of data set: Cytotoxicity against human NCI-H157 cells at 10 uM after 24 hrs by sulforhodamine B assay. Format: functional.

Structures are written as SMILES.

T2 sequence (P21589 whole entry): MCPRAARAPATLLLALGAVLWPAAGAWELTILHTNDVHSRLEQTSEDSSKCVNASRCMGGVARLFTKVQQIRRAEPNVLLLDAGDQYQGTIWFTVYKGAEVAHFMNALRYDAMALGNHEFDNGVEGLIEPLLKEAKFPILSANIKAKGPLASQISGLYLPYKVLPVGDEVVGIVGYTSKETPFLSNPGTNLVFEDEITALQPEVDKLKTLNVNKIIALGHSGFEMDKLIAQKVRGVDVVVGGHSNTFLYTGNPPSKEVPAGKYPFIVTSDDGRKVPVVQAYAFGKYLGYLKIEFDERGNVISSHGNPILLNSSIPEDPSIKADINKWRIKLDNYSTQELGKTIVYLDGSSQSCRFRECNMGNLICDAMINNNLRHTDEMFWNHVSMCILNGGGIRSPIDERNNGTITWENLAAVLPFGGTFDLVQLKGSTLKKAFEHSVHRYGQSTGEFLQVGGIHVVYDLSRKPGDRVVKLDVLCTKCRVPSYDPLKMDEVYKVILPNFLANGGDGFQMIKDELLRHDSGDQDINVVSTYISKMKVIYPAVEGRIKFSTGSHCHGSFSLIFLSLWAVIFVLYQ

Regarding `Nc1cc(S(=O)(=O)[O-])cc2ccccc12.[Na+]`, the Activity is 48% in the data set on NCI-H157 [1] and “Non-toxic” with HCEC. Further, the inhibition in data set [2] was found to be 20%; at 5'-nucleotidase [3] it was 35%.

As to `Cc1ccc2nc(-c3ccc(N)cc3)sc2c1S(=O)(=O)O`, the results for the IC50 on 5'-nucleotidase [4] and at 5'-nucleotidase [5] were 13.5 µM and 18.6 µM, respectively. For the same compound, the Activity in the data set with NCI-H157 [1] is less than 40%; with HCEC, “Non-toxic”.

Regarding `Nc1c(S(=O)(=O)O)cc(Br)c2c1C(=O)c1ccccc1C2=O`, the Activity with NCI-H157 [1] is less than 40%; with HCEC, “Non-toxic”. The inhibition in data set [2] amounted to 27%; at 5'-nucleotidase [3], 4%.

In the case of `Nc1cc(S(=O)(=O)O)cc2cc(S(=O)(=O)O)cc(O)c12`, the IC50 came out at 21.8 µM on 5'-nucleotidase [4] and 76.6 µM at 5'-nucleotidase [5]. Also, the Activity is recorded as less than 40% in the data set with NCI-H157 [1] and “Non-toxic” in the data set on HCEC.

On to `Nc1ccc(S(=O)(=O)O)cc1`, for which the results for the IC50 on 5'-nucleotidase [4] and at 5'-nucleotidase [5] were 8.2 µM and 70.1 µM, respectively. The results for the Activity in the data set with NCI-H157 [1] and with HCEC were less than 40% and “Non-toxic”, respectively.

In the case of `NC(=O)Nc1ccc2cc(S(=O)(=O)O)cc(O)c2c1`, the IC50 at 5'-nucleotidase [4] is 30.5 µM. Also, the Activity is listed as less than 40% in the data set with NCI-H157 [1] and “Non-toxic” in the data set with HCEC. In addition, in data set [2], the inhibition worked out at 40%.

As to `NS(=O)(=O)O` [SULFAMATE], the IC50 was 42.1 µM on 5'-nucleotidase [4] and 77.3 µM on 5'-nucleotidase [5]. Moreover, the Activity is recorded as less than 40% in the data set on NCI-H157 [1] and “Non-toxic” in the data set with HCEC.

Take `Nc1ccc(Nc2ccc([N+](=O)[O-])cc2)c(S(=O)(=O)O)c1`: the half-maximal inhibitory concentration (IC50) on 5'-nucleotidase [4] came to 47.6 µM; at 5'-nucleotidase [5] it was 72.9 µM. Further, the Activity in the data set on NCI-H157 [1] is 42%; in the data set on HCEC, “Non-toxic”.

As for `CC1=NN(c2ccccc2)C(=O)C1` [EDARAVONE], the Activity with NCI-H157 [1] is 70%; in the data set with NCI-H157 [6], 40%; with HCEC it was “Non-toxic”. For the same compound, the results for the inhibition (in data set [2]; at 5'-nucleotidase [3]) were 29% and 15%, respectively.

`CC[C@]1(O)C[C@H]2CN(CCc3c([nH]c4ccccc34)[C@@](C(=O)OC)(c3cc4c(cc3OC)N(C=O)[C@H]3[C@@](O)(C(=O)OC)[C@H](OC(C)=O)[C@]5(CC)C=CCN6CC[C@]43[C@@H]65)C2)C1` [VINCRISTINE]: the Activity with NCI-H157 [1] is given as 47%.

Regarding `Nc1ccc(S(=O)(=O)O)c2ccccc12`, the Activity in the data set on NCI-H157 [1] is reported as less than 40%; with HCEC it was “Non-toxic”. Besides, the results for the inhibition (in data set [2]; on 5'-nucleotidase [3]) were 28% and 43%, respectively.

For `CC1=NN(c2ccc(S(=O)(=O)O)cc2)C(=O)C1`, the IC50 on 5'-nucleotidase [4] is 6.1 µM; at 5'-nucleotidase [5], 44.3 µM. In addition, the figures for the Activity in the data set on NCI-H157 [1], in the data set on NCI-H157 [6] and in the data set with HCEC were 72%, 40% and “Non-toxic”, respectively.

As to `Nc1c(O)cc(S(=O)(=O)O)c2cc([N+](=O)[O-])ccc12`, the IC50 on 5'-nucleotidase [4] was 41 µM; on 5'-nucleotidase [5], 31.6 µM. In addition, the Activity with NCI-H157 [1] was less than 40%; in the data set on HCEC it was “Non-toxic”.

Turning to `Nc1ccc2cc(S(=O)(=O)O)cc(O)c2c1`, the IC50 came out at 1.32 µM at 5'-nucleotidase [4] and 10.4 µM on 5'-nucleotidase [5]. In addition, the figures for the Activity in the data set with NCI-H157 [1] and in the data set on HCEC were less than 40% and “Non-toxic”, respectively.
